Biological target: T1, full length active recombinant SYK enzyme (Homo sapiens, UniProt P43405)
T1 construct: full length active recombinant SYK enzyme (Millipore, Calif.); purchased Millipore
Experiment: Inhibition of Syk tyrosine phosphorylation activity (LANCE TR-FRET kinase assay)
Format: biochemical
Conditions: 1 nM SYK, 550 nM substrate, 100 μM ATP, 1 hour room temperature

IC50	SMILES
0.001 to 0.01 µM	CC[C@@H](Nc1ncc(C(N)=O)c(Nc2cnc3ccccc3c2)n1)C1(N)CC1 [Example 154, (R)-2-(1-(1-aminocyclopropyl)propylamino)-4-(quinolin-3-ylamino)pyrimidine-5-carboxamide]
0.01 to 0.1 µM	CC(C)[C@@H](Nc1ncc(C(N)=O)c(Nc2ccc3ncccc3c2)n1)C(N)=O [Example 69, (R)-2-(1-amino-3-methyl-1-oxobutan-2-ylamino)-4-(quinolin-6-ylamino)pyrimidine-5-carboxamide]
0.01 to 0.1 µM	NC(=O)c1cnc(N[C@H]2[C@@H](N)CCCC2(F)F)nc1Nc1cccc(-c2ncccn2)c1 [Example 35, 2-(((1S,6S)-6-amino-2,2-difluorocyclohexyl)amino)-4-((3-(pyrimidin-2-yl)phenyl)amino)pyrimidine-5-carboxamide]
0.01 to 0.1 µM	Cc1cccc(Nc2nc(NC3(CN)CC3)ncc2C(N)=O)c1 [Example 117, 4-(m-toluidino)-2-(1-(aminomethyl)cyclopropylamino)pyrimidine-5-carboxamide]
0.001 to 0.01 µM	CC(C)C[C@@H](Nc1ncc(C(N)=O)c(Nc2cccc(-n3cccn3)c2)n1)C1(N)CC1 [Example 139, (R)-4-(3-(1H-pyrazol-1-yl)phenylamino)-2-(1-(1-aminocyclopropyl)-3-methylbutylamino)pyrimidine-5-carboxamide]
0.1 to 1 µM	NC(=O)c1cnc(N[C@H](C2CC2)C2(N)CC2)nc1Nc1ccc(F)cc1 [Example 170, (R)-2-(1-(1-aminocyclopropyl)(cyclopropyl)methylamino)-4-(4-fluorophenylamino)pyrimidine-5-carboxamide]
0.001 to 0.01 µM	NC(=O)c1cnc(N[C@H](C2CC2)C2(N)CC2)nc1Nc1cccc(-n2cccn2)c1 [Example 151, (R)-4-(3-(1H-pyrazol-1-yl)phenylamino)-2-(1-(1-aminocyclopropyl)(cyclopropyl)methylamino)pyrimidine-5-carboxamide]
0.01 to 0.1 µM	CC[C@@H](Nc1ncc(C(N)=O)c(Nc2cnn3ccccc23)n1)C(N)=O [Example 56, (R)-2-((1-amino-1-oxobutan-2-yl)amino)-4-(pyrazolo[1,5-a]pyridin-3-ylamino)pyrimidine-5-carboxamide]
0.001 to 0.01 µM	Cn1ncc2c(Nc3nc(N[C@H](C4CC4)C4(N)CC4)ncc3C(N)=O)cccc21 [Example 162, (R)-2-(1-(1-aminocyclopropyl)(cyclopropyl)methylamino)-4-(1-methyl-1H-indazol-4-ylamino)pyrimidine-5-carboxamide]
0.001 to 0.01 µM	NC(=O)c1cnc(N[C@H](C2CC2)C2(N)CC2)nc1Nc1cccc(F)c1 [Example 156, (R)-2-(1-(1-aminocyclopropyl)(cyclopropyl)methylamino)-4-(3-fluorophenylamino)pyrimidine-5-carboxamide]
0.001 to 0.01 µM	NC(=O)c1cnc(N[C@H]2[C@@H](N)CCCC2(F)F)nc1Nc1cccc(-n2cccn2)c1 [Example 34, 4-((3-(1H-pyrazol-1-yl)phenyl)amino)-2-(((1S,6S)-6-amino-2,2-difluorocyclohexyl)amino)pyrimidine-5-carboxamide]
0.001 to 0.01 µM	NC(=O)c1cnc(N[C@H](C2CC2)C2(N)CC2)nc1Nc1csc2ncccc12 [Example 171, (R)-2-(1-(1-aminocyclopropyl)(cyclopropyl)methylamino)-4-(thieno[2,3-b]pyridine-3-ylamino)pyrimidine-5-carboxamide]
0.01 to 0.1 µM	NC(=O)c1cnc(N[C@H](c2ccccc2)C2(N)CC2)nc1Nc1cccc(-c2ncccn2)c1 [Example 150, (R)-2-(1-(1-aminocyclopropyl)(phenyl)methylamino)-4-(3-(pyrimidin-2-yl)phenylamino)pyrimidine-5-carboxamide]
> 1 µM	NC(=O)c1cnc(N[C@H]2CN[C@H](C(=O)O)C2)nc1Nc1cnc2ccccc2c1 [Example 217, (2S,4R)-4-((5-carbamoyl-4-(quinolin-3-ylamino)pyrimidin-2-yl)amino)pyrrolidine-2-carboxylic acid]
0.01 to 0.1 µM	CC[C@@H](Nc1ncc(C(N)=O)c(Nc2csc3ncccc23)n1)C(N)=O [Example 55, (R)-2-((1-amino-1-oxobutan-2-yl)amino)-4-(thieno[2,3-b]pyridin-3-ylamino)pyrimidine-5-carboxamide]
0.1 to 1 µM	Cc1ccc(Nc2nc(NC[C@H](C)N)ncc2C(N)=O)cc1 [Example 207]
0.01 to 0.1 µM	CC[C@@H](Nc1ncc(C(N)=O)c(Nc2cnc3ccccc3c2)n1)C(N)=O [Example 68, (R)-2-(1-amino-1-oxobutan-2-ylamino)-4-(quinolin-3-ylamino)pyrimidine-5-carboxamide]

Continued, compound first:

SMILES	IC50
COc1ccc(Nc2ncc(C(N)=O)c(NC3CCC(N)CC3)n2)cn1 (stereo in doubt) [Example 248, 4-(trans-4-aminocyclohexylamino)-2-(6-methoxypyridin-3-ylamino)pyrimidine-5-carboxamide]	0.1 to 1 µM
CC[C@@H](Nc1ncc(C(N)=O)c(Nc2cc(-n3cccn3)cc(-n3cccn3)c2)n1)C(N)=O [Example 250, (R)-2-((1-amino-1-oxobutan-2-yl)amino)-4-((3,5-di(1H-pyrazol-1-yl)phenyl)amino)pyrimidine-5-carboxamide]	0.1 to 1 µM
NC(=O)c1cnc(N[C@@H]2CCCC[C@@H]2N)nc1Nc1csc2ncccc12 [Example 44, 2-(((1R,2S)-2-aminocyclohexyl)amino)-4-(thieno[2,3-b]pyridin-3-ylamino)pyrimidine-5-carboxamide]	0.001 to 0.01 µM
Cc1cc(C)cc(Nc2nc(N[C@@H]3CCCC(F)(F)[C@@H]3N)ncc2C(N)=O)c1 [Example 33, 2-(((1R,2R)-2-amino-3,3-difluorocyclohexyl)amino)-4-((3,5-dimethylphenyl)amino)pyrimidine-5-carboxamide]	0.1 to 1 µM
CC[C@@H](Nc1nc(Nc2cc(C)ns2)ncc1C(N)=O)C(N)=O [Example 205]	0.1 to 1 µM
NC(=O)c1cnc(N[C@@H]2CCCC[C@@H]2n2ccnn2)nc1Nc1cccc(-n2nccn2)c1 [Example 9, 2-((1R,2S)-2-(1H-1,2,3-triazol-1-yl)cyclohexylamino)-4-(3-(2H-1,2,3-triazol-2-yl)phenylamino)pyrimidine-5-carboxamide]	0.1 to 1 µM
CN1CCc2c(Nc3nc(NC[C@@H](N)CC(F)F)ncc3C(N)=O)cccc21 [Example 98, (S)-2-(2-amino-4,4-difluorobutylamino)-4-(1-methylindolin-4-ylamino)pyrimidine-5-carboxamide]	0.01 to 0.1 µM
NC(=O)c1cnc(N[C@@H]2CCCC[C@@H]2N)nc1Nc1ccc(Cl)c(-n2nccn2)c1 [Example 22, 2-((1R,2S)-2-aminocyclohexylamino)-4-(4-chloro-3-(2H-1,2,3-triazol-2-yl)phenylamino)pyrimidine-5-carboxamide]	0.001 to 0.01 µM
Cn1ccc2c(Nc3nc(NC[C@@H](N)CC(F)F)ncc3C(N)=O)cccc21 [Example 85, (S)-2-(2-amino-4,4-difluorobutylamino)-4-(1-methyl-1H-indol-4-ylamino)pyrimidine-5-carboxamide]	0.001 to 0.01 µM
NC(=O)c1cnc(N[C@@H]2CCNC2)nc1Nc1cccc(-c2ncccn2)c1 [Example 222]	0.01 to 0.1 µM
NC(=O)c1cnc(N[C@@H]2CCCC[C@@H]2N)nc1Nc1cccc(-n2ncc[n+]2[O-])c1 [Example 251, 2-(3-((2-(((1R,2S)-2-aminocyclohexyl)amino)-5-carbamoylpyrimidin-4-yl)amino)phenyl)-2H-1,2,3-triazole 1-oxide]	0.01 to 0.1 µM
NC(=O)c1cnc(Nc2ccccc2)nc1NC1CCC(N)CC1 (stereo not drawn) [Example 183, 4-(4-aminocyclohexylamino)-2-(phenylamino)pyrimidine-5-carboxamide]	0.01 to 0.1 µM
Cc1cccc(Nc2nc(N[C@@H]3CC[C@@H](C(=O)N4CCCC4)C[C@@H]3N)ncc2C(N)=O)c1 (racemic) [Example 193, 2-((1R,2S,4R)-2-amino-4-(pyrrolidine-1-carbonyl)cyclohexylamino)-4-(m-tolylamino)pyrimidine-5-carboxamide]	0.01 to 0.1 µM
NC(=O)c1cnc(N[C@H]2[C@@H](N)CCCC2(F)F)nc1Nc1csc2ncccc12 [Example 36, 2-(((1S,6S)-6-amino-2,2-difluorocyclohexyl)amino)-4-(thieno[2,3-b]pyridin-3-ylamino)pyrimidine-5-carboxamide]	0.01 to 0.1 µM
CCN1CCc2c(Nc3nc(N[C@@H](CN)C4CC4)ncc3C(N)=O)cccc21 [Example 99, (R)-2-(2-amino-1-cyclopropylethylamino)-4-(1-ethylindolin-4-ylamino)pyrimidine-5-carboxamide]	0.01 to 0.1 µM
Cc1csc(Nc2nc(N[C@H](CC(C)C)C(N)=O)ncc2C(N)=O)c1 [Example 194, (R)-2-(1-amino-4-methyl-1-oxopentan-2-ylamino)-4-(4-methylthiophen-2-ylamino)pyrimidine-5-carboxamide]	0.01 to 0.1 µM
CCN1CC[C@@H](Nc2ncc(C(N)=O)c(Nc3cccc(-n4nccn4)c3)n2)C1 [Example 223]	> 1 µM
NC(=O)c1cnc(N[C@@H]2CCC[C@H](F)[C@@H]2N)nc1Nc1cccc(-n2cccn2)c1 [Example 238, 4-(3-(1H-pyrazol-1-yl)phenylamino)-2-((1R,2R,3S)-2-amino-3-fluorocyclohexylamino)pyrimidine-5-carboxamide]	0.01 to 0.1 µM
COC(=O)C(C)(C)c1cccc(Nc2nc(N[C@@H]3CCCC[C@@H]3N)ncc2C(N)=O)c1 [Example 201]	0.1 to 1 µM
Cc1ccc(Nc2ncc(C(N)=O)c(N[C@H]3CC[C@@H](N)CC3)n2)cc1 [Example 184, 4-(4-aminocyclohexylamino)-2-(p-tolylamino)pyrimidine-5-carboxamide]	0.01 to 0.1 µM
C=C1C[C@@H](Nc2ncc(C(N)=O)c(Nc3cccc(-n4nccn4)c3)n2)CN1 [Example 226]	0.1 to 1 µM
CCn1ccc2c(Nc3nc(Nc4ccc5c(c4)CC(=O)N5)ncc3C(N)=O)cccc21 [Example 113, 4-(1-ethyl-1H-indol-4-ylamino)-2-(2-oxoindolin-5-ylamino)pyrimidine-5-carboxamide]	0.01 to 0.1 µM
